Source: ChEMBL document CHEMBL4651402, “Screening of ~5500 FDA-approved drugs and clinical candidates for anti-SARS-CoV-2 activity” (2021)
Peptide text beside a SMILES is read from it.

Test system: SARS-CoV-2
Assay: microbe, parasite or virus in culture
Details: Severe acute respiratory syndrome coronavirus 2, Vero C1008, 48 h

Row | SMILES | IC50 | IC50 (read-out: pIC50 (converted))
1 | c1ccc2c(CCC3CCNCC3)c[nH]c2c1 [INDALPINE] | > 20 µM | > 20 µM
2 | CC1Cc2ccccc2N1NC(=O)c1ccc(Cl)c(S(N)(=O)=O)c1 (configuration not stated) [INDAPAMIDE] | > 20 µM | > 20 µM
3 | c1ccc2[nH]ncc2c1 [INDAZOLE] | > 20 µM | > 20 µM
4 | CC(C)NCCCC1(C(N)=O)c2ccccc2-c2ccccc21 [INDECAINIDE] | > 20 µM | > 20 µM
5 | O=C1Nc2ccccc2/C1=C1/Nc2ccccc2C1=O [INDIRUBIN] | > 20 µM | > 20 µM
6 | CC1(C)C(=O)Nc2ccc(C3=NNC(=O)CC3)cc21 [INDOLIDAN] | > 20 µM | > 20 µM
7 | O=C(O)CCc1c[nH]c2ccccc12 [INDOLYLPROPIONIC ACID] | > 20 µM | > 20 µM
8 | CC(C(=O)O)c1ccc(N2Cc3ccccc3C2=O)cc1 (configuration not stated) [INDOPROFEN] | > 20 µM | > 20 µM
9 | O=C(NC1CCN(CCc2c[nH]c3ccccc23)CC1)c1ccccc1 [INDORAMIN] | > 20 µM | > 20 µM
10 | CCN1CCN(c2ccc(Nc3cc(N(C)C(=O)Nc4c(Cl)c(OC)cc(OC)c4Cl)ncn3)cc2)CC1 [INFIGRATINIB] | > 20 µM | > 20 µM
11 | NC(=O)c1ccc(I)c([N+](=O)[O-])c1 [INIPARIB] | > 20 µM | > 20 µM
12 | O=c1[nH]cnc2c1ncn2[C@@H]1O[C@H](CO)[C@@H](O)[C@H]1O [INOSINE] | > 20 µM | > 20 µM
13 | O[C@H]1[C@H](O)[C@@H](O)[C@H](O)[C@@H](O)[C@H]1O [INOSITOL] | > 20 µM | > 20 µM
14 | O=S(=O)(c1ccccc1)c1cnc2c(N3CCNCC3)cccc2c1 [INTEPIRDINE] | > 20 µM | > 20 µM
15 | O=C(c1ccc(Cl)cc1)n1cc(Cc2nnn[nH]2)c2ccccc21 [INTRAZOLE] | > 20 µM | > 20 µM
16 | CN(C)CC#CC=C1c2ccccc2C=Cc2ccccc21 [INTRIPTYLINE] | > 20 µM | > 20 µM
17 | N=C(N)NCc1cccc(I)c1 [IOBENGUANE] | > 20 µM | > 20 µM
18 | CC(=O)N(CC(C)C(=O)O)c1c(I)cc(I)c(N)c1I (configuration not stated) [IOCETAMIC ACID] | > 20 µM | > 20 µM
19 | O=C(CCCCC(=O)Nc1c(I)cc(I)c(C(=O)O)c1I)Nc1c(I)cc(I)c(C(=O)O)c1I [IODIPAMIDE] | > 20 µM | > 20 µM
20 | CC(=O)N(CC(O)CN(C(C)=O)c1c(I)c(C(=O)NCC(O)CO)c(I)c(C(=O)NCC(O)CO)c1I)c1c(I)c(C(=O)NCC(O)CO)c(I)c(C(=O)NCC(O)CO)c1I (configuration not stated) [IODIXANOL] | > 20 µM | > 20 µM
21 | Oc1c(I)cc(I)c2cccnc12 [IODOQUINOL] | > 20 µM | > 20 µM
22 | CC(=O)N(CC(O)CO)c1c(I)c(C(=O)NCC(O)CO)c(I)c(C(=O)NCC(O)CO)c1I (configuration not stated) [IOHEXOL] | > 20 µM | > 20 µM
23 | CCC(Cc1c(I)cc(I)c(N)c1I)C(=O)O (configuration not stated) [IOPANOIC ACID] | > 20 µM | > 20 µM
24 | COCC(=O)Nc1c(I)c(C(=O)NCC(O)CO)c(I)c(C(=O)N(C)CC(O)CO)c1I (configuration not stated) [IOPROMIDE] | > 20 µM | > 20 µM
25 | O=C(COCCOCCOCC(=O)Nc1c(I)cc(I)c(C(=O)O)c1I)Nc1c(I)cc(I)c(C(=O)O)c1I [IOTROXIC ACID] | > 20 µM | > 20 µM
26 | O=C(NCC(O)CO)c1c(I)c(C(=O)NCC(O)CO)c(I)c(N(CCO)C(=O)CO)c1I (configuration not stated) [IOVERSOL] | > 20 µM | > 20 µM

Row | SMILES | IC50 | IC50 (read-out: pIC50 (converted))
27 | CNC(=O)c1c(I)c(C(=O)NCC(=O)Nc2c(I)c(C(=O)O)c(I)c(C(=O)NCCO)c2I)c(I)c(N(C)C(C)=O)c1I [IOXAGLIC ACID] | > 20 µM | > 20 µM
28 | CC(C)NC[C@@H](C(=O)N1CCN(c2ncnc3c2[C@H](C)C[C@H]3O)CC1)c1ccc(Cl)cc1 [IPATASERTIB] | > 20 µM | > 20 µM
29 | Nc1c2c(nc3c1CCC3)CCCC2 [IPIDACRINE] | > 20 µM | > 20 µM
30 | OC[C@H]1O[C@@H](c2ccc(F)c(Cc3cc4ccccc4s3)c2)[C@H](O)[C@@H](O)[C@@H]1O [IPRAGLIFLOZIN] | > 20 µM | > 20 µM
31 | CC(C)Oc1ccc2c(=O)c(-c3ccccc3)coc2c1 [IPRIFLAVONE] | > 20 µM | > 20 µM
32 | CN(C)CCCn1c2c(c3ccccc31)CCCCCC2 [IPRINDOLE] | > 20 µM | > 20 µM
33 | CC(C)CCCC(C)NC(C)C (configuration not stated) [IPROHEPTINE] | > 20 µM | > 20 µM
34 | CC(C)NNC(=O)c1ccncc1 [IPRONIAZID] | > 20 µM | > 20 µM
35 | CC(C)c1ncc([N+](=O)[O-])n1C [IPRONIDAZOLE] | > 20 µM | > 20 µM
36 | O=C1c2ccccc2S(=O)(=O)N1CCCCN1CCN(c2ncccn2)CC1 [IPSAPIRONE] | > 20 µM | > 20 µM
37 | CCCCC1=NC2(CCCC2)C(=O)N1Cc1ccc(-c2ccccc2-c2nnn[nH]2)cc1 [IRBESARTAN] | > 20 µM | > 20 µM
38 | O=C1NCCN1CCN1CCN([C@@H]2C[C@@H](c3ccc(F)cc3)c3ccccc32)CC1 [IRINDALONE] | > 20 µM | > 20 µM
39 | Nc1nc(N)nc(-c2cc(Cl)ccc2Cl)n1 [IRSOGLADINE] | > 20 µM | > 20 µM
40 | Cc1nc2cc(C(c3ccccc3)n3ccnc3)ccc2[nH]1 (configuration not stated) [IRTEMAZOLE] | > 20 µM | > 20 µM
41 | CC(C)NCC(O)COc1ccccc1-n1cccc1 (configuration not stated) [ISAMOLTAN] | > 20 µM | > 20 µM
42 | Nc1nc(=O)c2sc(=O)n([C@@H]3O[C@H](CO)[C@@H](O)[C@H]3O)c2[nH]1 [ISATORIBINE] | > 25.1 µM | > 25.1 µM
43 | CC(C)Nc1ncccn1 [ISAXONINE] | > 20 µM | > 20 µM
44 | O=C(O)CCCC/C=C(/c1ccccc1)c1cccnc1 [ISBOGREL] | > 20 µM | > 20 µM
45 | COc1cc2occc2c2oc(=O)ccc12 [ISOBERGAPTENE] | > 20 µM | > 20 µM
46 | CC(C)COC(=O)c1ccc(N)cc1 [ISOBUTAMBEN] | > 20 µM | > 20 µM
47 | CC(C)Cn1c(=O)n(C)c(=O)c2nc[nH]c21 [ISOBUTYLMETHYLXANTHINE] | > 20 µM | > 20 µM
48 | CC(C)C(N)=O [ISOBUTYRAMIDE] | > 20 µM | > 20 µM
49 | Cc1cc(C(=O)NNCc2ccccc2)no1 [ISOCARBOXAZID] | > 20 µM | > 20 µM
50 | Clc1ccc(C(Cn2ccnc2)OCc2c(Cl)cccc2Cl)c(Cl)c1 (configuration not stated) [ISOCONAZOLE] | > 20 µM | > 20 µM
51 | COc1ccc2c(c1O)-c1c(OC)c(OC)cc3c1[C@H](C2)N(C)CC3 [ISOCORYDINE] | > 20 µM | > 20 µM
52 | CC(=O)OCC(=O)[C@@]1(O)CC[C@H]2[C@@H]3CCC4=CC(=O)C=C[C@]4(C)[C@@]3(F)[C@@H](O)C[C@@]21C [ISOFLUPREDONE ACETATE] | > 20 µM | > 20 µM

Row | SMILES | IC50 | IC50 (read-out: pIC50 (converted))
53 | O=C(O)C1=CCNCC1 [ISOGUVACINE] | > 20 µM | > 20 µM
54 | C=C1CCC2C(CC2(C)C)C(=O)CCC1O (configuration not stated) [ISOKOBUSONE] | > 20 µM | > 20 µM
55 | O=C(/C=C/c1ccc(O)cc1)c1ccc(O)cc1O [ISOLIQUIRITIGENIN] | > 20 µM | > 20 µM
56 | CCC(=O)C(c1ccccc1)(c1ccccc1)C(C)CN(C)C (configuration not stated) [ISOMETHADONE] | > 20 µM | > 20 µM
57 | CNC(C)CCC=C(C)C (configuration not stated) [ISOMETHEPTENE] | > 20 µM | > 20 µM
58 | NNC(=O)c1ccncc1 [ISONIAZID] | > 20 µM | > 20 µM
59 | COc1c2ccoc2c(OC)c2oc(=O)ccc12 [ISOPIMPINELLIN] | > 20 µM | > 20 µM
60 | CC(C)[N+](C)(CCC(C(N)=O)(c1ccccc1)c1ccccc1)C(C)C [ISOPROPAMIDE] | > 20 µM | > 20 µM
61 | CC(C)NCC(O)c1ccc(O)c(O)c1 (configuration not stated) [ISOPROTERENOL] | > 20 µM | > 20 µM
62 | O=[N+]([O-])O[C@@H]1CO[C@H]2[C@@H]1OC[C@@H]2O [ISOSORBIDE MONONITRATE] | > 20 µM | > 20 µM
63 | O[C@@H]1CO[C@H]2[C@@H]1OC[C@@H]2O [ISOSORBIDE] | > 20 µM | > 20 µM
64 | CC(=O)N[C@@H](CC(=O)O)C(=O)N[C@@H](CCC(=O)O)C(=O)O [ISOSPAGLUMIC ACID] (Ac-Asp-Glu-OH) | > 20 µM | > 20 µM
65 | Cc1ccnc2c1CCCC2C(N)=S (configuration not stated) [ISOTIQUIMIDE] | > 20 µM | > 20 µM
66 | CC(C)CC(N)=O [ISOVALERAMIDE] | > 20 µM | > 20 µM
67 | Cc1cc(NC(=O)C2=C(O)c3ccccc3S(=O)(=O)N2C)no1 [ISOXICAM] | > 20 µM | > 20 µM
68 | CC(COc1ccccc1)NC(C)C(O)c1ccc(O)cc1 (configuration not stated) [ISOXSUPRINE] | > 20 µM | > 20 µM
69 | Cc1ccc(C(=O)N(CCCN)[C@@H](c2nc3cc(Cl)ccc3c(=O)n2Cc2ccccc2)C(C)C)cc1 [ISPINESIB] | > 20 µM | > 20 µM
70 | CN[C@@H](C)C/C=C/c1cncc(OC(C)C)c1 [ISPRONICLINE] | > 20 µM | > 20 µM
71 | COC(=O)C1=C(C)NC(C)=C(C(=O)OC(C)C)C1c1cccc2nonc12 (configuration not stated) [ISRADIPINE] | > 20 µM | > 20 µM
72 | C[C@]12CCC(=NOCCN)C[C@@H]1C(=O)C[C@@H]1[C@@H]2CC[C@]2(C)C(=O)CC[C@@H]12 [ISTAROXIME] | > 20 µM | > 20 µM
73 | CCn1c(=O)c2c(nc(/C=C/c3ccc(OC)c(OC)c3)n2C)n(CC)c1=O [ISTRADEFYLLINE] | > 20 µM | > 20 µM
74 | N#CCC1(n2cc(-c3ncnc4[nH]ccc34)cn2)CN(C2CCN(C(=O)c3ccnc(C(F)(F)F)c3F)CC2)C1 [ITACITINIB] | > 20 µM | > 20 µM
75 | COc1ccc(-c2nc(C(F)(F)F)sc2-c2ccc(OC)cc2)cc1 [ITAZIGREL] | > 20 µM | > 20 µM
76 | COc1ccc(C(=O)NCc2ccc(OCCN(C)C)cc2)cc1OC [ITOPRIDE] | > 20 µM | > 20 µM
